Structures can show the parent of a compound that is named as a salt. Starred links: 1 amine or outer side, 2 acyl side, 3 side chain; linkers in the order of their positions; H or OH if unused. Non-standard residues stand in square brackets, D forms with d. Residues, ends and D or L forms follow the SMILES beside them. ξ: configuration not given here. X1 = COC(=O)/C=C/CC[C@H](N[*:1])C(=O)[*:2]; Pro(4-oxo) = O=C1CN[C@H](C(=O)O)C1; Ile(3ξ) = CCC(C)[C@H](N)C(=O)O; Nle = CCCC[C@H](N)C(=O)O
Biological target: T1, Factor XIIIa (Homo sapiens, UniProt P00488)
T1 construct: purchased Zedira T027 or T007
T1 sequence (P00488 39-732 limits assumed): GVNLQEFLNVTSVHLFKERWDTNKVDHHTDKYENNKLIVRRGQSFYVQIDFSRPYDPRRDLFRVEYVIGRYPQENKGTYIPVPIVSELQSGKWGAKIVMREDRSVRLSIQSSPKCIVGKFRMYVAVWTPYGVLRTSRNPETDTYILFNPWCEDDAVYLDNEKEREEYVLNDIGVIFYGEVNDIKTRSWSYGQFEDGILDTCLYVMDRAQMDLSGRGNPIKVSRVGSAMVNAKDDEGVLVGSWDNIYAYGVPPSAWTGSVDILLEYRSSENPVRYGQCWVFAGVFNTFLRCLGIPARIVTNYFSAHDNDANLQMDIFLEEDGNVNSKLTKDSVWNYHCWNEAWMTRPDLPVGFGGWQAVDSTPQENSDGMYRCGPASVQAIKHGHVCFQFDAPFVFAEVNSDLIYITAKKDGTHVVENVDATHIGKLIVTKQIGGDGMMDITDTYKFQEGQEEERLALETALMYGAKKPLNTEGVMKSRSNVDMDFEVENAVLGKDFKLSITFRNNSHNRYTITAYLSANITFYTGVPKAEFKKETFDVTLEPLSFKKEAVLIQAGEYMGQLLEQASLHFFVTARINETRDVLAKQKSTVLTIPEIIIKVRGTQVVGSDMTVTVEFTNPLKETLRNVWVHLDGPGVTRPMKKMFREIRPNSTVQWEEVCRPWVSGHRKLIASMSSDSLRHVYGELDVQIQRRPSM
Assay: Fluorogenic assay kit F001 (Zedira), isopeptidase activity of FXIIIa
Assay type: biochemical
Conditions: FXIIIa after activation by thrombin; fluorescence ex 313 nm / em 418 nm
Method: Kinetic data of the inhibitor 1 (compound 4) and inhibitor 2 (compound 7) using the commercial fluorogenic assay kit F001 (Zedira) show an IC50 of about 0.11 and 0.08 μM respectively. The fluorogenic assay kit F001 (Zedira) is ready to use. Briefly, recombinant factor XIII (Zedira, product number T027) or human blood derived factor XIII (T007) is reconstituted in water. The enzymatic activity is measured in a suitable buffer (e.g. TRIS buffer pH 7.5 containing calcium chloride, sodium chloride, poly ethylene glycol (PEG), glycine methyl ester, clot inhibitor peptide GPRP-amide) after activation by thrombin. Factor XIIIa cleaves a dark quenching molecule from the side chain of the modified peptide incorporating glycine methyl ester (so called iso-peptidase activity). Subsequently, the fluorescence of an N-terminal coupled dye increases and can be monitored on-line (excitation wavelength 313 nm; emission wavelength 418 nm). The inhibitor of interest can be added after the activation of Factor XIII by thrombin is completed. The IC50 value represents the inhibitor concentration leading to a 50% inhibition of FXIIIa activity.

IC50	SMILES
~80 nM	CCCC[C@H](NC(=O)[C@H](CC/C=C/C(=O)OC)NC(=O)[C@@H]1CC(=O)CN1)C(=O)N[C@H](C(=O)N[C@@H](CC(C)C)C(=O)N1CCC[C@H]1C(=O)N[C@@H](Cc1c[nH]c2ccccc12)C(=O)N1CCC[C@H]1C(=O)O)C(C)CC (stereo partly drawn) [compound 7, (S)-1-((S)-2-((S)-1-((8S,11S,14S,17S,E)-14-sec-butyl-11-butyl-17-isobutyl-3,9,12,15-tetraoxo-8-((S)-4-oxopyrrolidine-2-carboxamido)-2-oxa-10,13,16-triazaoctadec-4-ene)pyrrolidine-2-carboxamido)-3-(1H-indol-3-yl)propanoyl)pyrrolidine-2-carboxylic acid trifluoroacetate] (H-[Pro(4-oxo)][X1][Nle][Ile(3ξ)]LPWP-OH)
~110 nM	CCCC[C@H](NC(=O)[C@H](CC/C=C/C(=O)OC)NC(=O)[C@@H](CC(=O)O)NC(C)=O)C(=O)N[C@@H](CCCC)C(=O)N[C@@H](CC(C)C)C(=O)N1CCC[C@H]1C(=O)N[C@@H](Cc1c[nH]c2ccccc12)C(=O)N1CCC[C@H]1C(=O)O [compound 4, (S)-1-((S)-2-((S)-1-((4R,7S,10S,13S,16S)-10,13-dibutyl-4-(carboxymethyl)-7-((E)-5-methoxy-5-oxopent-3-enyl)-18-methyl-2,5,8,11,14-pentaoxo-3,6,9,12,15-pentaazanonadecanecarbonyl)pyrrolidine-2-carboxamido)-3-(1H-indol-3-yl)propanoyl)pyrrolidine-2-carboxylic acid] (Ac-[dD][X1][Nle][Nle]LPWP-OH)

From patent publication US20160137990A1, “CRYSTAL STRUCTURE OF BLOOD COAGULATION FACTOR XIIIA” (ZEDIRA GMBH, priority 2012, published 2016)
